Results from US20110053933A1, “HYDROXYQUINOXALINECARBOXAMIDE DERIVATIVE” (DAIICHI SANKYO COMPANY, LIMITED, priority 2008, published 2011).
pIC50: −log10 of the molar value.

Test system: γ-glutamyl carboxylation reaction (human Gas6 in Gas6-HEK293 cells)
Assay: Inhibitory action on γ-glutamyl carboxylation reaction (secreted γ-glutamyl carboxylated Gas6 by ELISA)
Format: cell-based
Details: vitamin K2 100 nM, exposure 18 to 20 hours, ELISA absorbance at 620 nm, read-out: IC50 (50% inhibitory concentration for the γ-glutamyl carboxylation reaction)
Protocol: Measurement of Inhibitory Action on γ-Glutamyl Carboxylation Reaction
Cells were used that expressed Gas6 excreted outside the cells when subjected to γ-glutamyl carboxylation, and inhibitory action on γ-glutamyl carboxylation reaction was assessed by measuring the secreted amount of extracellular Gas6 by ELISA method.
(A) Preparation for Assay Plate Containing Solid-Phase Anti-Human Gas6 Antibody
Goat anti-human Gas6 antibody (R&D Systems, Inc.) was diluted to 1 μg/ml with Dulbecco's phosphate-buffered saline, and 40 μl aliquots thereof were dispensed into each well of a 384-well microplate. After immobilizing the antibody to the solid phase by allowing it to stand at 4° C. overnight or at room temperature for 2 hours or more, each well was washed three times with wash buffer (10 mM Tris-HCl pH 7.4, 150 mM sodium chloride, 0.05% Tween20). After removing the supernatant, 80 μl aliquots of a 1% aqueous solution of Block Ace (Dainippon Sumitomo Pharma) were dispensed into each well and allowed to react at room temperature for 1 hour or more.
(B) Exposure of Test Compounds to Cells Stably Expressing Human Gas6
Cells that stably express human Gas6 (Gas6-HEK293), which were prepared by inserting human Gas6 gene (inserted between SalI and NotI within multiple cloning sites of pCIneo expression vector) into HEK293 cells, were grown and sub-cultured using Dulbecco's modified Eagle's medium (DMEM) containing 10% fetal calf serum (FCS). On the day before ELISA measurement, the Gas6-HEK293 cells were detached with trypsin-EDTA, dispersed in DMEM containing 10% FCS, and disseminated into each well of a 384-well, collagen type I-coated plate (Becton-Dickinson) in 30 μl aliquots containing 1.0×10^4 cells each, followed by culturing for 3 to 4 hours at 5% CO2 and 37° C. 30 μl aliquots of DMEM containing test compound solutions, prepared at various concentrations by dissolving in DMSO, and vitamin K2 at 0.1% and 100 nM, respectively (indicating final concentrations in both cases) were added to each well followed by additionally culturing for 18 to 20 hours.
(C) Quantification of γ-Glutamyl Carboxylated Gas6 by ELISA and Calculation of 50% Inhibitory Concentrations of γ-Glutamyl Carboxylation Reaction
After removing the 1% Block Ace aqueous solution from the preliminarily prepared assay plates containing solid phase anti-human Gas6 antibody, the culture supernatant of Gas6-HEK293 cells exposed to the test compounds was collected and 40 μl aliquots were dispensed into each well followed by allowing to react at room temperature for 2 hours (Step 1). The culture supernatant was removed and each well was washed three times with wash buffer. Thereafter, the same washing procedure was carried out between Steps 2 and 3 and Steps 3 and 4. Subsequently, 40 μl aliquots of mouse anti-human […] antibody (American Diagnostica inc.), adjusted to 0.5 μg/ml with immunoreaction buffer (100 mM Tris-HCl pH 7.4, 0.05% Tween20, 0.1% Block Ace), were dispensed into each well and allowed to react at room temperature for 1 hour (Step 2). Next, 40 μl aliquots of alkaline phosphatase-conjugated anti-mouse IgG antibody adjusted to 1.0 μg/ml with immunoreaction buffer were dispensed into each well and allowed to react at room temperature for 1 hour (Step 3). 40 μl aliquots of BluePhos Microwell (KPL) were dispensed into each well, and after incubating at room temperature for 10 minutes (Step 4), 20 μl aliquots of 5% EDTA were added to each well to stop the color development reaction, followed by measurement of absorbance at 620 nm (Step 5). […]

Row | Compound | pIC50
1 | CC(C)[C@H](NC(=O)c1nc2ccccc2nc1O)C(=O)N1CCC(Oc2ncc(F)cc2F)CC1 [Example 49, N-[(1S)-1-({4-[(3,5-Difluoropyridin-2-yl)oxy]piperidin-1-yl]carbonyl)-2-methylpropyl}-3-hydroxyquinoxaline-2-carboxamide] | 8.37
2 | CC(C)[C@H](NC(=O)c1nc2ccccc2nc1O)C(=O)N1CCC(C(=O)c2ccc(F)cc2)CC1 [Example 61, N-[(1S)-1-{[4-(4-Fluorobenzoyl)piperidin-1-yl]carbonyl}-2-methylpropyl]-3-hydroxyquinoxaline-2-carboxamide] | 8.29
3 | CC(C)[C@H](NC(=O)c1nc2ccccc2nc1O)C(=O)N1CCC(Oc2ccc(C(F)(F)F)cc2)CC1 [Example 62, 3-Hydroxy-N-[(1S)-2-methyl-1-({4-[4-(trifluoromethyl)phenoxy]piperidin-1-yl}carbonyl)propyl]quinoxaline-2-carboxamide] | 8.44
4 | CC(C)[C@H](NC(=O)c1nc2ccccc2nc1O)C(=O)N1CCC(Oc2ncc(Br)cn2)CC1 [Example 65, N-[(1S)-1-({4-[(5-Bromopyrimidin-2-yl)oxy]piperidin-1-yl}carbonyl)-2-methylpropyl]-3-hydroxyquinoxaline-2-carboxamide] | 7.70
5 | CC(C)[C@H](NC(=O)c1nc2ccccc2nc1O)C(=O)N1CCC(C(=O)c2ccc(F)cc2O)CC1 [Example 67, N-[(1S)-1-{[4-(4-Fluoro-2-hydroxybenzoyl)piperidin-1-yl]carbonyl}-2-methylpropyl]-3-hydroxyquinoxaline-2-carboxamide] | 9.12
6 | CC(C)(O)[C@H](NC(=O)c1nc2ccccc2nc1O)C(=O)N1CCC(Oc2ccc(F)cc2)CC1 [Example 69, N-[(1S)-1-{[4-(4-Fluorophenoxy)piperidin-1-yl]carbonyl}-2-hydroxy-2-methylpropyl]-3-hydroxyquinoxaline-2-carboxamide] | 8.47
7 | CC(C)[C@H](NC(=O)c1nc2ccc(F)cc2nc1O)C(=O)N1CCC(Oc2ccc(F)cc2)CC1 [Example 74, N-[(1S)-1-{[4-(4-Fluorophenoxy)piperidin-1-yl]carbonyl}-2-methylpropyl]-6-fluoro-3-hydroxyquinoxaline-2-carboxamide] | 8.26
8 | CC(C)[C@H](NC(=O)c1nc2ccccc2nc1O)C(=O)N1CCC(Oc2ncc(-c3ccccc3)cn2)CC1 [Example 80, 3-Hydroxy-N-[(1S)-2-methyl-1-({4-[(5-phenylpyrimidin-2-yl)oxy]piperidin-1-yl}carbonyl)propyl]quinoxaline-2-carboxamide] | 8.15
9 | CC(C)[C@H](NC(=O)c1nc2ccccc2nc1O)C(=O)N1CCC(Oc2cnc(-c3ccccc3)nc2)CC1 [Example 81, 3-Hydroxy-N-[(1S)-2-methyl-1-({4-[(2-phenylpyrimidin-5-yl)oxy]piperidin-1-yl}carbonyl)propyl]quinoxaline-2-carboxamide] | 8.34
10 | CC(C)[C@H](NC(=O)c1nc2ccccc2nc1O)C(=O)N1CCC(Oc2ncc(Br)cn2)C(C)(C)C1 (stereo partly drawn) [Example 82, N-[(1S)-1-({4-[(5-Bromopyrimidin-2-yl)oxy]-3,3-dimethylpiperidin-1-yl}carbonyl)-2-methylpropyl]-3-hydroxyquinoxaline-2-carboxamide] | 8.34
11 | CC(C)[C@H](NC(=O)c1nc2ccccc2nc1O)C(=O)N1CCC(Oc2ccc(C(F)(F)F)nc2)CC1 [Example 84, 3-Hydroxy-N-{(1S)-2-methyl-1-[(4-{[6-(trifluoromethyl)pyridin-3-yl]oxy}piperidin-1-yl)carbonyl]propyl}quinoxaline-2-carboxamide] | 8.26
12 | COc1ccc(OC2CCN(C(=O)[C@@H](NC(=O)c3nc4ccccc4nc3O)C(C)C)CC2)cn1 [Example 86, 3-Hydroxy-N-[(1S)-1-({4-[(6-methoxypyridin-3-yl)oxy]piperidin-1-yl}carbonyl)-2-methylpropyl]quinoxaline-2-carboxamide] | 9.15
13 | Cc1nc2ccc(OC3CCN(C(=O)[C@@H](NC(=O)c4nc5ccccc5nc4O)C(C)C)CC3)cc2s1 [Example 91, 3-Hydroxy-N-[(1S)-2-methyl-1-({4-[(2-methyl-1,3-benzothiazol-6-yl)oxy]piperidin-1-yl}carbonyl)propyl]quinoxaline-2-carboxamide] | 8.42
14 | CC(C)[C@H](NC(=O)c1nc2ccccc2nc1O)C(=O)N1CCC(Oc2ncc(C(F)(F)F)cn2)CC1 [Example 94, 3-Hydroxy-N-{(1S)-2-methyl-1-[(4-{[5-(trifluoromethyl)pyrimidin-2-yl]oxy}piperidin-1-yl)carbonyl]propyl}quinoxaline-2-carboxamide] | 8.57
15 | CC(C)[C@H](NC(=O)c1nc2ccccc2nc1O)C(=O)N1CCC(Oc2ncc(N3CCCCC3)cn2)CC1 [Example 96, 3-Hydroxy-N-[(1S)-2-methyl-1-({4-[(5-piperidin-1-ylpyrimidin-2-yl)oxy]piperidin-1-yl}carbonyl)propyl]quinoxaline-2-carboxamide] | 8.02
16 | CC(C)[C@H](NC(=O)c1nc2ccccc2nc1O)C(=O)N1CCC(Oc2cnc(N3CCCCC3)nc2)CC1 [Example 97, 3-Hydroxy-N-[(1S)-2-methyl-1-({4-[(2-piperidin-1-ylpyrimidin-5-yl)oxy]piperidin-1-yl}carbonyl)propyl]quinoxaline-2-carboxamide] | 8.35
17 | CC(C)[C@H](NC(=O)c1nc2ccccc2nc1O)C(=O)N1CCC(C(=O)c2ccc(F)cc2F)CC1 [Example 98, N-[(1S)-1-{[4-(2,4-Difluorobenzoyl)piperidin-1-yl]carbonyl}-2-methylpropyl]-3-hydroxyquinoxaline-2-carboxamide] | 8.46
18 | CC(C)[C@H](NC(=O)c1nc2ccccc2nc1O)C(=O)N1CCC(C(O)c2ccc(F)cc2F)CC1 (stereo partly drawn) [Example 99, N-[(1S)-1-({4-[(2,4-Difluorophenyl)(hydroxy)methyl]piperidin-1-yl}carbonyl)-2-methylpropyl]-3-hydroxyquinoxaline-2-carboxamide] | 8.31
19 | CC(C)[C@H](NC(=O)c1nc2ccccc2nc1O)C(=O)N1CCC(Oc2ccc(C(F)(F)F)nn2)CC1 [Example 100, 3-Hydroxy-N-{(1S)-2-methyl-1-[(4-{[6-(trifluoromethyl)pyridazin-3-yl]oxy}piperidin-1-yl)carbonyl]propyl}quinoxaline-2-carboxamide] | 7.98
